Laboratory results: patent EP0467099A2, “Substituted acrylophenons” (BAYER AG, priority 1990, dated 1992)

Key:
[1] = test system: Testpflanzen; test: Post-emergence test (herbicidal damage rating); type: in vivo; conditions: plants 5 - 15 cm sprayed, rated after three weeks, result in words only; for Wirksamkeit (Schädigungsgrad der Pflanzen): compared with reference 2-[2-(4,6-Dimethoxy)-pyrimidinylthio]-benzoesäuremethylester (EP 223406/Bsp. 11); for Nutzpflanzenselektivität: crop selectivity compared with reference 2-[2-(4,6-Dimethoxy)-pyrimidinylthio]-benzoesäuremethylester (EP 223406/Bsp. 11)
Source text: Lösungsmittel: 5 Gewichtsteile Aceton
Emulgator: 1 Gewichtsteil Alkylarylpolyglykolether
(§1) Zur Herstellung einer zweckmäßigen Wirkstoffzubereitung vermischt man 1 Gewichtsteil Wirkstoff mit der angegebenen Menge Lösungsmittel, gibt die angegebene Menge Emulgator zu und verdünnt das Konzentrat mit Wasser auf die gewünschte Konzentration.
Mit der Wirkstoffzubereitung spritzt man Testpflanzen, welche eine Höhe von 5 - 15 cm haben, so, daß die jeweils gewünschten Wirkstoffmengen pro Flächeneinheit ausgebracht werden. Die Konzentration der Spritzbrühe wird so gewählt, daß in 1000 I Wasser/ha die jeweils gewünschten Wirkstoffmengen ausgebracht werden. Nach drei Wochen wird der Schädigungsgrad der Pflanzen bonitiert in % Schädigung im Vergleich zur Entwicklung der unbehandelten Kontrolle.
Es bedeuten: • 0 % = keine Wirkung (wie unbehandelte Kontrolle) • 100 % = totale Vernichtung

[2] = test system: Testpflanzen; test: Pre-emergence test (herbicidal damage rating); type: in vivo; conditions: seeds watered 24 h after sowing, rated after three weeks, compared with reference 2-[2-(4,6-Dimethoxy)-pyrimidinylthio]-benzoesäuremethylester (EP 223406/Bsp. 11), result in words only
Source text: Lösungsmittel: 5 Gewichtsteile Aceton Emulgator: 1 Gewichtsteil Alkylarylpolyglykolether
as §1
Samen der Testpflanzen werden in normalen Boden ausgesät und nach 24 Stunden mit der Wirkstoffzubereitung begossen. Dabei hält man die Wassermenge pro Flächeneinheit zweckmäßigerweise konstant. Die Wirkstoffkonzentration in der Zubereitung spielt keine Rolle, entscheidend ist nur die Aufwandmenge des Wirkstoffs pro Flächeneinheit. Nach drei Wochen wird der Schädigungsgrad der Pflanzen bonitiert in % Schädigung im Vergleich zur Entwicklung der unbehandelten Kontrolle. Es bedeuten: • 0 % = keine Wirkung (wie unbehandelte Kontrolle) • 100 % = totale Vernichtung

| SMILES | Wirksamkeit (Schädigungsgrad der Pflanzen) [1] | Nutzpflanzenselektivität [1] | Wirksamkeit (Schädigungsgrad der Pflanzen) [2] |
| --- | --- | --- | --- |
| COc1cc(OC)nc(Oc2ccccc2C(=O)C=P(c2ccccc2)(c2ccccc2)c2ccccc2)n1 [Beispiel 3, {2-[2-(4,6-Dimethoxy)-pyrimidinyloxy]-benzoyl}-methylentriphenylphosphoran] | deutliche Überlegenheit | deutliche Überlegenheit | – |
| COc1cc(OC)nc(Oc2ccccc2C(=O)C=CN2CCCCCC2)n1 [Beispiel 1, 3-(1-Hexahydroazepino)-1-{2-[2-(4,6-dimethoxy)-pyrimidinyloxy]-phenyl}-prop-2-en-1-on] | deutliche Überlegenheit | deutliche Überlegenheit | deutliche Überlegenheit |
| COc1cc(OC)nc(Oc2ccccc2C(=O)C(C)=CN(C)C)n1 [Beispiel 2, 3-Dimethylamino-2-methyl-1-{2-[2-(4,6-dimethoxy)-pyrimidinyloxy]-phenyl}-prop-2-en-1-on] | deutliche Überlegenheit | deutliche Überlegenheit | – |
